PMC12184311 (2025)

Legend:
[1] = system: mm3WJ (mismatched 3WJ) (DNA, junction) CGGAACGGCACTCG/CGAGTGCAGCGTGG/CCACGCACGTTCCG; test: PAGE
[2] = system: two-base-bulged 3WJ (DNA, junction) CGGAACGAAGCACTCG/CGAGTGCAGCGTGG/CCACGCTCGTTCCG; test: PAGE
[3] = system: one-base-bulged 3WJ (DNA, junction) CGGAACGAGCACTCG/CGAGTGCAGCGTGG/CCACGCTCGTTCCG; test: PAGE
[4] = system: 4WJ-FAM1 (DNA, junction) GCCTAGCATGATACTGCTACCG/CGGTAGCAGTACCGTTGGTGGC/GCCACCAACGGCGTCAACTGCC/GGCAGTTGACGTCATGCTAGGC; test: FRET, FAM emission; settings: Na+ 50 mM (NaOAc); 10 mM HEPES; 5 µM DNA, 1 equivalent Pt-BIMA; FAM emission up about 3.5-fold
[5] = system: 4WJ-22 (DNA, junction) GCCTAGCATGATACTGCTACCG/CGGTAGCAGTACCGTTGGTGGC/GCCACCAACGGCGTCAACTGCC/GGCAGTTGACGTCATGCTAGGC; test: PAGE gel shift; settings: Mg2+ 10 mM (MgCl2); band widens, no distinct shift
[6] = system: DS-21 (dsDNA) (DNA, duplex) CCTTCACGCGAACGTAATCCT/AGGATTACGTTCGCGTGAAGG; test: UV melting, 260 nm; settings: Na+ (10 mM Na cacodylate, 50 mM NaOAc); 1 equivalent Pt-BIMA
[7] = system: FAM-labelled 4WJ-22 (FAM-4WJ) (DNA, junction) GCCTAGCATGATACTGCTACCG/CGGTAGCAGTACCGTTGGTGGC/GCCACCAACGGCGTCAACTGCC/GGCAGTTGACGTCATGCTAGGC; test: microscale thermophoresis; settings: Na+ 50 mM (NaOAc); 10 mM HEPES, 0.1% Tween, room temperature; 20 nM DNA
[8] = system: 4WJ-22 (DNA, junction) GCCTAGCATGATACTGCTACCG/CGGTAGCAGTACCGTTGGTGGC/GCCACCAACGGCGTCAACTGCC/GGCAGTTGACGTCATGCTAGGC; test: MST competition, unlabelled DNA titrated; settings: Na+ 50 mM (NaOAc); IC50 of competitor DNA, not of compound; 20 nM FAM-4WJ-22, 80 nM Pt-BIMA; 10 mM HEPES, 0.1% Tween-20
[9] = system: 4WJ-22 (DNA, junction) GCCTAGCATGATACTGCTACCG/CGGTAGCAGTACCGTTGGTGGC/GCCACCAACGGCGTCAACTGCC/GGCAGTTGACGTCATGCTAGGC; test: UV melting, 260 nm; settings: Na+ (10 mM Na cacodylate, 50 mM NaOAc); 1 equivalent Pt-BIMA, 0.05% DMSO; biphasic
[10] = system: FAM-labelled DS-21 (dsDNA) (DNA, duplex) CCTTCACGCGAACGTAATCCT/AGGATTACGTTCGCGTGAAGG; test: microscale thermophoresis; settings: Na+ 50 mM (NaOAc); 10 mM HEPES, 0.1% Tween, room temperature; tested 1.5 nM to 50 µM Pt-BIMA
[11] = system: Y fork (DNA, junction) CGCACGTACGGAACGGCACTCGCTTGCTCG/CGAGCAAGCGAGTGCAGCGTGGATACATGC; test: UV melting, 260 nm; settings: Na+ (10 mM Na cacodylate, 50 mM NaOAc); 1 equivalent Pt-BIMA
[12] = system: 3WJ (DNA, junction) CGGAACGGCACTCG/CGAGTGCAGCGTGG/CCACGCTCGTTCCG; test: UV melting, 260 nm; settings: Na+ (10 mM Na cacodylate, 50 mM NaOAc); 1 equivalent Pt-BIMA
[13] = system: DS-21 (dsDNA) (DNA, duplex) CCTTCACGCGAACGTAATCCT/AGGATTACGTTCGCGTGAAGG; test: MST competition, unlabelled DNA titrated; settings: Na+ 50 mM (NaOAc); IC50 of competitor DNA, not of compound; 20 nM FAM-4WJ-22, 80 nM Pt-BIMA; 10 mM HEPES, 0.1% Tween-20
[14] = system: FAM-labelled 3WJ-18 (DNA, junction) GTGGCGAGAGCGACGATC/GATCGTCGCAGAGTTGAC/GTCAACTCTTCTCGCCAC; test: microscale thermophoresis; settings: Na+ 50 mM (NaOAc); 10 mM HEPES, 0.1% Tween, room temperature; error exceeds value

Row | Structure (SMILES) | binding [1] | binding [2] | binding [3] | binding [4] | binding [5] | ΔTm [6] [°C] | Kd [7] | IC50 [8] | ΔTm [9] [°C] | binding [10] | ΔTm [11] [°C] | ΔTm [12] [°C] | IC50 [13] [µM] | Kd [14]
1 | [Pd+2].[Pd+2].c1ccc2c(c1)ncn2Cc1c2ccccc2c(Cn2cnc3ccccc32)c2ccccc12.c1ccc2c(c1)ncn2Cc1c2ccccc2c(Cn2cnc3ccccc32)c2ccccc12.c1ccc2c(c1)ncn2Cc1c2ccccc2c(Cn2cnc3ccccc32)c2ccccc12.c1ccc2c(c1)ncn2Cc1c2ccccc2c(Cn2cnc3ccccc32)c2ccccc12 | yes | yes | yes | – | – | – | – | – | – | – | – | – | – | –
2 | [Pt+2].[Pt+2].c1ccc2c(c1)ncn2Cc1c2ccccc2c(Cn2cnc3ccccc32)c2ccccc12.c1ccc2c(c1)ncn2Cc1c2ccccc2c(Cn2cnc3ccccc32)c2ccccc12.c1ccc2c(c1)ncn2Cc1c2ccccc2c(Cn2cnc3ccccc32)c2ccccc12.c1ccc2c(c1)ncn2Cc1c2ccccc2c(Cn2cnc3ccccc32)c2ccccc12 | yes | yes | yes | yes | weak | 0.7 ± 0.9 | 8.27 ± 1.11 x 10^-8 M | 2.88 ± 0.42 x 10^-8 M | 11.6 ± 0.6 | no | 5.4 ± 1.1 | 21.1 ± 0.1 | > 25 | 1.90 ± 2.27 × 10^-6 M
